Consider 17 molecules from ChEMBL document CHEMBL5291721, “A preclinical secondary pharmacology resource illuminates target-adverse drug reaction associations of marketed drugs” (Nat Commun, 2023).

The AC50 is the concentration at which the activity in the assay is half-maximal. Read a low AC50 as greater potency.

Test [1] has as its target T1, 5-hydroxytryptamine receptor 1A (Homo sapiens, UniProt P08908).
T1 sequence (P08908 whole entry): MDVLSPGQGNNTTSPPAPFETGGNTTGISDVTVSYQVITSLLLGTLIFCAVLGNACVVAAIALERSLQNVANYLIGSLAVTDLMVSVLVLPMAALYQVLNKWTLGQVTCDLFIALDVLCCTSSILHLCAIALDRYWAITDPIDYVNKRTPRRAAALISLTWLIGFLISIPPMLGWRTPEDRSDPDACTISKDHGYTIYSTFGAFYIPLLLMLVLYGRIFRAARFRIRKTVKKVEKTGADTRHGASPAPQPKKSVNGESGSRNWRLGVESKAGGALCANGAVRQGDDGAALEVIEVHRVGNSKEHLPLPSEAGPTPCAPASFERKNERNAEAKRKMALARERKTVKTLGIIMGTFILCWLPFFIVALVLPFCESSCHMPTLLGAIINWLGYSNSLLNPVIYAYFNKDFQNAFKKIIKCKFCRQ
Type of test: functional, cell-based.

The target of test [2] is T2, Alpha-2C adrenergic receptor (Homo sapiens, UniProt P18825).
T2 sequence (P18825 whole entry): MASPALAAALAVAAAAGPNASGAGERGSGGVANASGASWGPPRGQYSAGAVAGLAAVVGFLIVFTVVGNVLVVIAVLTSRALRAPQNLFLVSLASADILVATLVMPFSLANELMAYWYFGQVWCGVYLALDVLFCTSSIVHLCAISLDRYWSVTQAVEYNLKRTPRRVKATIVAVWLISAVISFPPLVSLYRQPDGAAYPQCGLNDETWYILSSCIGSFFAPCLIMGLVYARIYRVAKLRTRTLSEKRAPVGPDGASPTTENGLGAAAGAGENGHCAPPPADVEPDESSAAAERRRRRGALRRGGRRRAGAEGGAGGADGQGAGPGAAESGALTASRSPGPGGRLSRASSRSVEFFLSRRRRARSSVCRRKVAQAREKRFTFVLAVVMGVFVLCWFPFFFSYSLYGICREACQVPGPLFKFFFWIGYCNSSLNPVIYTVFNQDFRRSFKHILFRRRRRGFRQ
Type of test: functional.

Test [3] deals with T3, 5-hydroxytryptamine receptor 2B (Homo sapiens, UniProt P41595). The test is classed as functional, cell-based.
T3 sequence (P41595 whole entry): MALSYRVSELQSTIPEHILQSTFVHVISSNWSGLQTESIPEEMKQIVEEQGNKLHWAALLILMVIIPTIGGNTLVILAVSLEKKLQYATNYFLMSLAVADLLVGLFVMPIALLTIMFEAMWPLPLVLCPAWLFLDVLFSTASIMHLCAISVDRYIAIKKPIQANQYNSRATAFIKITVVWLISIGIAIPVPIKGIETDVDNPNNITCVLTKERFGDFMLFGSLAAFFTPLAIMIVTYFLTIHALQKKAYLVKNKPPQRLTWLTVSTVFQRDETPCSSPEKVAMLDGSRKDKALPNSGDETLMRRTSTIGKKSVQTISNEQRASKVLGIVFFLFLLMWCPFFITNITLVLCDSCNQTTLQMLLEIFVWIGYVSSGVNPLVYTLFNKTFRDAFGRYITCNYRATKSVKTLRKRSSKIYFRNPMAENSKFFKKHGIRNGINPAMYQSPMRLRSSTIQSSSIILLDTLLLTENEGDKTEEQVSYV
For test [4], the target named is T4, Alpha-2A adrenergic receptor (Homo sapiens, UniProt P08913).
T4 sequence (P08913 whole entry): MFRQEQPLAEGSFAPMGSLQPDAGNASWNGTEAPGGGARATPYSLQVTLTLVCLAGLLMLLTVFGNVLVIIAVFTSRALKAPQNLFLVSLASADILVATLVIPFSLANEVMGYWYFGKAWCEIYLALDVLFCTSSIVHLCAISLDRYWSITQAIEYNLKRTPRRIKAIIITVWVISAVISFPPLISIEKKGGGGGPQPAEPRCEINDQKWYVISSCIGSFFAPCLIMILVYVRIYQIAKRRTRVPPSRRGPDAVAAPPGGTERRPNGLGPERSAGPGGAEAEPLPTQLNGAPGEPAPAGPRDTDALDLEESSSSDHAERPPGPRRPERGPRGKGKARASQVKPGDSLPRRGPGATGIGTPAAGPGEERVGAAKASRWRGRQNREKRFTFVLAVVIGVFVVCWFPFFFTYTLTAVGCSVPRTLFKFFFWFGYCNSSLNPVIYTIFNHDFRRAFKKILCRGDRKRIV
The test is classed as functional, cell-based.

Test [5] has as its target T5, 5-hydroxytryptamine receptor 2C (Homo sapiens, UniProt P28335).
T5 sequence (P28335 whole entry): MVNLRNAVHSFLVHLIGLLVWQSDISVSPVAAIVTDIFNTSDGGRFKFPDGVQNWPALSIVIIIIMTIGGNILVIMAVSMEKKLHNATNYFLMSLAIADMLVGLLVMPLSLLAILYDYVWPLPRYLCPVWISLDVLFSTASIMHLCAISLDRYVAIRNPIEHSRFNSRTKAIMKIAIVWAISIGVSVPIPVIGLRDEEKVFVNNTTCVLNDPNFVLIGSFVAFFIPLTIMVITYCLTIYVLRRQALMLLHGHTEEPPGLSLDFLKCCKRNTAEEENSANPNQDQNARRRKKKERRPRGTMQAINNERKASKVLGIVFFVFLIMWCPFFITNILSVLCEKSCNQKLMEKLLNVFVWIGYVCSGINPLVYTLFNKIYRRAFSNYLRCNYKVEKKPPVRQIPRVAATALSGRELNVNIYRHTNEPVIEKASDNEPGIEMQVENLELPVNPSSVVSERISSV

Another test concerns the target Cannabinoid receptor 1 (Homo sapiens, UniProt P21554). The test is classed as functional, cell-based.
Test [6] addresses T3, 5-hydroxytryptamine receptor 2B. Type of test: functional, cell-based. This is another data set of the same source.
The target of test [7] is T6, Alpha-1A adrenergic receptor (Homo sapiens, UniProt P35348).
T6 sequence (P35348 whole entry): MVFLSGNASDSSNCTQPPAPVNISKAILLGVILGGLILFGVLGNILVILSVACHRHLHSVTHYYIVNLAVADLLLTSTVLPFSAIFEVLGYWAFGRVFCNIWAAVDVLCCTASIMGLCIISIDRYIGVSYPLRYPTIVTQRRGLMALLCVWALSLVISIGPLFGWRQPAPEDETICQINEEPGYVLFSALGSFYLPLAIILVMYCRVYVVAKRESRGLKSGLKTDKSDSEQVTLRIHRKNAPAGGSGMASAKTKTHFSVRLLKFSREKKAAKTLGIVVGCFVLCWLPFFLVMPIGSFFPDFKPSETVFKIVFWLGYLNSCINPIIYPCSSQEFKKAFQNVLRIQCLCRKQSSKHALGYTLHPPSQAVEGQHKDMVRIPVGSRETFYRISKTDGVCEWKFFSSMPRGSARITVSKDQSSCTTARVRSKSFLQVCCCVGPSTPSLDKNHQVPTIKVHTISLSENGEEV
The test is classed as functional, cell-based.

Test [8] concerns the target T3, 5-hydroxytryptamine receptor 2B. The test is classed as functional, cell-based. The source holds these as a separate data set.
Also: assay procedure not described here.

Chain of Cannabinoid receptor 1 (P21554 whole entry): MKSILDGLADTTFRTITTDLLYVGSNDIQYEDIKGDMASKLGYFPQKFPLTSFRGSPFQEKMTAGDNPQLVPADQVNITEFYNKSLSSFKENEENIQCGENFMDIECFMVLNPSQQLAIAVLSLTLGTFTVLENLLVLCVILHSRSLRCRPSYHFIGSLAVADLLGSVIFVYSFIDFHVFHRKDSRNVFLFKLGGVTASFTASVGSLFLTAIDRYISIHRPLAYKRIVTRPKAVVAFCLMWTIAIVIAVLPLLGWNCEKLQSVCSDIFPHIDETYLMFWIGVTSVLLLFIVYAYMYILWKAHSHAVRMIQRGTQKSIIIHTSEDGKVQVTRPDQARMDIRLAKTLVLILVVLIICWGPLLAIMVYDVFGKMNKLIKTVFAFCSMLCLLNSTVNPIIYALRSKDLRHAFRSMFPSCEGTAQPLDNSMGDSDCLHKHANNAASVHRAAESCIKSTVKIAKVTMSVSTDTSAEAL

Regarding `C[N+](C)(C)CC(=O)O` [BETAINE], the AC50 (in test [1]; in test [2]; in [3]; in test [4]; in [5]; on Cannabinoid receptor 1) was over 30 µM throughout. The AC50 in test [6] and in [7] was over 30 µM each time.
Turning to `CCCC(=O)N1CCCN(c2nc(N)c3cc(OC)c(OC)cc3n2)CC1` [BUNAZOSIN], the concentration at half-maximal activity (AC50) in [1] is over 30 µM; in test [2], 0.55 µM; in test [3], over 30 µM; in test [4], over 30 µM; in [5] it was over 30 µM; at Cannabinoid receptor 1, over 30 µM. Also, in test [6], the AC50 is over 30 µM.
For `CC(=O)N(CC(O)CO)c1c(I)c(C(=O)NCC(O)CO)c(I)c(C(=O)NCC(O)CO)c1I` (stereo not drawn) [IOHEXOL], the AC50 is over 10 µM in [1]; over 10 µM in test [2]; over 10 µM in test [3]; over 10 µM in [4]; over 30 µM in test [5]; over 30 µM at Cannabinoid receptor 1. Besides, the AC50 is over 10 µM in test [6] and over 30 µM in test [7].
Take `CC(C)(N)Cc1ccc(Cl)cc1` [CHLORPHENTERMINE]: the AC50 is over 10 µM in test [1]; over 10 µM in test [2]; 25 µM in [3]; over 10 µM in [4]; over 30 µM in [5]; over 30 µM on Cannabinoid receptor 1. Moreover, the values for the AC50 in test [6] and in test [7] were over 10 µM and over 30 µM, respectively.
Turning to `CC(C(O)c1ccc(O)cc1)N1CCC(Cc2ccccc2)CC1` (stereo not drawn) [IFENPRODIL], the AC50 in test [1] was 1.3 µM; in test [2], 0.89 µM; in test [3], 2.3 µM; in test [4] it was over 30 µM; in [5], over 30 µM; on Cannabinoid receptor 1, over 30 µM. Moreover, the concentration at half-maximal activity (AC50) in [6] was over 30 µM; in [7] it was 0.45 µM.
With `CC(C)NCC1CCc2cc(CO)c([N+](=O)[O-])cc2N1` (stereo not drawn) [OXAMNIQUINE], the AC50 was over 30 µM in test [1]; over 10 µM in test [2]; 26 µM in [3]; over 10 µM in [4]; over 30 µM in [5]; over 30 µM on Cannabinoid receptor 1. For the same molecule, the half-maximal activity concentration (AC50) is over 10 µM in [6] and over 30 µM in test [7].
`CN(C)[C@@H]1C(O)=C(C(N)=O)C(=O)[C@@]2(O)C(O)=C3C(=O)c4c(O)ccc(Cl)c4[C@@H](O)[C@H]3C[C@@H]12` [DEMECLOCYCLINE]: the AC50 in test [1] was over 10 µM; in [2], over 10 µM; in test [3], over 10 µM; in [4] it was over 10 µM; in test [5] it was over 30 µM; in test [6], over 10 µM.
Consider `NS(=O)(=O)c1cc(-c2nnn[nH]2)c(NCc2cccs2)cc1Cl` [AZOSEMIDE], for which the concentration at half-maximal activity (AC50) (in [1]; in test [2]; in test [3]; in test [4]; in test [5]; on Cannabinoid receptor 1) was over 30 µM each time. The AC50 in test [6] and in [7] was over 30 µM in each case.
For `C=C1C[C@@H]2[C@H](CC[C@]3(C)C(=O)CC[C@@H]23)[C@@]2(C)C=CC(=O)C=C12` [EXEMESTANE], the AC50 in [1] is over 10 µM; in test [2] it was over 10 µM; in [3] it was 36 µM; in test [4] it was over 10 µM; in test [5], over 30 µM; on Cannabinoid receptor 1, over 30 µM. For the same molecule, the values for the AC50 in [6] and in test [7] were over 10 µM and over 30 µM, respectively.
As to `CC(=O)N[C@H]1[C@H]([C@H](O)[C@H](O)CO)OC(C(=O)O)=C[C@@H]1N=C(N)N` [ZANAMIVIR], the concentration at half-maximal activity (AC50) in [1] was over 30 µM; in [2], over 30 µM; in test [3], over 30 µM; in test [4], over 10 µM; in test [5], over 30 µM; in [6], over 30 µM.
On to `N[C@@H](CSCC(=O)O)C(=O)O` [CARBOCYSTEINE], for which the concentration at half-maximal activity (AC50) (in test [1]; in test [2]; in [3]; in test [4]; in [5]; at Cannabinoid receptor 1) was over 30 µM each time. The AC50 in test [6] and in [7] was over 30 µM in each case.
For the molecule `NS(=O)(=O)c1cc(Cl)c(Cl)c(S(N)(=O)=O)c1` [DICHLORPHENAMIDE], the AC50 in test [1] was over 10 µM; in test [2] it was over 10 µM; in test [3], over 10 µM; in test [4], over 10 µM; in test [5] it was over 30 µM; in test [6] it was over 10 µM. Moreover, the AC50 in test [7] was over 30 µM.
For the molecule `CN(CCCN1c2ccccc2CCc2ccccc21)CC(=O)c1ccc(Cl)cc1` [LOFEPRAMINE], the half-maximal activity concentration (AC50) in test [1] is over 30 µM; in test [2], 17 µM; in test [3], over 30 µM; in test [4] it was over 30 µM; in test [5], 2.7 µM; at Cannabinoid receptor 1, 3.5 µM. In addition, the concentration at half-maximal activity (AC50) in [6] was over 30 µM; in [7], 4.4 µM.
For the molecule `CN(C)CCCN1c2ccccc2Sc2ccccc21` [PROMAZINE], the AC50 is over 10 µM in test [1]; 0.82 µM in test [2]; 5.7 µM in test [3]; over 10 µM in test [4]; 0.15 µM in [5]; over 30 µM on Cannabinoid receptor 1. Also, the half-maximal activity concentration (AC50) in test [6] is over 10 µM; in test [7] it was 0.141 µM.
`CN(C/C=C/c1ccccc1)Cc1cccc2ccccc12` [NAFTIFINE]: the AC50 is over 10 µM in test [1]; 4.8 µM in [2]; over 10 µM in [3]; over 10 µM in [4]; over 30 µM in test [5]; over 30 µM at Cannabinoid receptor 1. Moreover, the half-maximal activity concentration (AC50) is over 10 µM in [6] and over 30 µM in [7].
Consider `O=P(O)(O)C(O)(Cc1cccnc1)P(=O)(O)O` [RISEDRONIC ACID], for which the AC50 (in test [1]; in test [2]; in [3]; in test [4]; in test [5]; on Cannabinoid receptor 1) was over 30 µM each time. The concentration at half-maximal activity (AC50) in [6] and in test [7] was over 30 µM each time.
For the molecule `CC(C)=CCC1C(=O)N(c2ccccc2)N(c2ccccc2)C1=O` [FEPRAZONE], in test [8], the half-maximal activity concentration (AC50) was over 30 µM.
